Experimental data from the supplement of paper PMC10307832.

Compound: Cc1nc(NC(=O)N2CCC[C@H]2C(N)=O)sc1-c1ccnc(C(C)(C)C(F)(F)F)c1 [Alpelisib] + CC(=O)c1c(C)c2cnc(Nc3ccc(N4CCNCC4)cn3)nc2n(C2CCCC2)c1=O [Palbociclib] (partner 0.5 µM)
Assay: relative viability (nuclei count vs DMSO), 5 days (fraction); higher = more cells survive
Conditions: first compound 4 µM
Procedure, shortened: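 Dosing by pin tool came one day after lung cancer cell lines were seeded in 1536-well plates, using either one drug or a fixed anchor-drug dose plus five library-drug doses (not always all listed) in √10 steps. After 5 days, nuclei were counted on 4× images. Relative viability is treated-well nuclei count divided by vehicle-well nuclei count, and values are medians of duplicate plates.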

Cell Line	relative viability
LCLC-97TM1	0.0948
NCI-H520	0.189
NCI-H2228	0.355

Compound: COc1cccc2cc(-c3nc([C@H]4CC[C@H](C(=O)O)CC4)n4ncnc(N)c34)[nH]c12 [OSI-027]
Assay: relative viability (nuclei count vs DMSO), 5 days (fraction); higher = more cells survive
Conditions: 0.01 µM
Procedure, shortened: (§1)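 For viability, nuclei in each treated well were divided by nuclei in vehicle wells and the median across plates was taken. Lung cancer cell lines in 1536-well plates were pinned with five library-drug doses (not always all listed) spaced by √10, cultured 5 days without medium change, and imaged at 4× after Hoechst staining, with plates passing only at control CV below 25% and at least one doubling.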

Cell Line	relative viability
NCI-H1915	1.05
NCI-H838	0.93
A-427	0.891
NCI-H2009	1.01
EKVX	0.984
NCI-H2087	0.986
NCI-H1734	0.962
LCLC-103H	1.03
LU99A	0.953
NCI-H460	1.03
NCI-H2170	0.941
SK-LU-1	1.08
NCI-H522	1
COR-L23	1.11
HCC-15	0.981
NCI-H1944	0.916

Cell Line	relative viability
EMC-BAC-2	0.938
NCI-H1792	0.658
NCI-H1395	0.914
LC-2-ad	1.07
NCI-H2085	0.962
NCI-H727	0.849
NCI-H647	0.943
HARA	1.02
NCI-H3122	1.03
NCI-H358	1
CAL-12T	0.99
COR-L 105	0.907
LCLC-97TM1	0.87
NCI-H520	1.15
NCI-H2228	0.975

Same assay, conditions: 0.03162 µM

Cell Line	relative viability
NCI-H1915	1.09
NCI-H838	0.898
A-427	0.946
NCI-H2009	0.992
EKVX	0.914
NCI-H2087	1.03
NCI-H1734	0.991
LCLC-103H	1.02
LU99A	0.894
NCI-H460	0.973
NCI-H2170	0.881
SK-LU-1	0.974
NCI-H522	1.03
COR-L23	0.94
HCC-15	0.977
NCI-H1944	0.915

Cell Line	relative viability
EMC-BAC-2	1.02
NCI-H1792	0.841
NCI-H1395	0.898
LC-2-ad	1.01
NCI-H2085	0.967
NCI-H727	0.884
NCI-H647	0.889
HARA	1.01
NCI-H3122	1.02
NCI-H358	0.842
CAL-12T	0.988
COR-L 105	0.945
LCLC-97TM1	0.869
NCI-H520	0.972
NCI-H2228	0.88

Same assay, conditions: 0.1 µM

Cell Line	relative viability
NCI-H1915	0.967
NCI-H838	0.782
A-427	0.794
NCI-H2009	0.965
EKVX	0.93
NCI-H2087	0.911
NCI-H1734	0.826
LCLC-103H	0.903
LU99A	0.831
NCI-H460	1.01
NCI-H2170	0.959
SK-LU-1	0.916
NCI-H522	0.819
COR-L23	1.04
HCC-15	0.983
NCI-H1944	0.808

Cell Line	relative viability
EMC-BAC-2	0.824
NCI-H1792	0.843
NCI-H1395	0.814
LC-2-ad	0.946
NCI-H2085	0.928
NCI-H727	0.893
NCI-H647	0.892
HARA	0.791
NCI-H3122	1.08
NCI-H358	1.03
CAL-12T	0.944
COR-L 105	0.814
LCLC-97TM1	0.888
NCI-H520	0.73
NCI-H2228	0.957

Same assay, conditions: 0.3162 µM

Cell Line	relative viability
NCI-H1915	0.891
NCI-H838	0.607
A-427	0.722
NCI-H2009	0.948
EKVX	0.889
NCI-H2087	0.911
NCI-H1734	0.785
LCLC-103H	0.871
LU99A	0.451
NCI-H460	0.917
NCI-H2170	0.797
SK-LU-1	0.608
NCI-H522	0.767
COR-L23	0.943
HCC-15	0.899
NCI-H1944	0.743

Cell Line	relative viability
EMC-BAC-2	0.644
NCI-H1792	0.709
NCI-H1395	0.795
LC-2-ad	1.02
NCI-H2085	0.926
NCI-H727	0.769
NCI-H647	0.705
HARA	0.936
NCI-H3122	0.959
NCI-H358	1.01
CAL-12T	0.857
COR-L 105	0.835
LCLC-97TM1	0.594
NCI-H520	0.628
NCI-H2228	0.941

Same assay, conditions: 0.5 µM; anchor plate

Cell Line	relative viability
NCI-H1915	0.601
NCI-H838	0.404
A-427	0.47
NCI-H2009	0.629
EKVX	0.693
NCI-H2087	0.605
NCI-H1734	0.615
LCLC-103H	0.473
LU99A	0.307
NCI-H460	0.701
NCI-H2170	0.716
SK-LU-1	0.328
NCI-H522	0.745
COR-L23	0.769
HCC-15	0.692
NCI-H1944	0.457

Cell Line	relative viability
EMC-BAC-2	0.39
NCI-H1792	0.784
NCI-H1395	0.69
LC-2-ad	0.875
NCI-H2085	0.789
NCI-H727	0.624
NCI-H647	0.654
HARA	0.498
NCI-H3122	1.03
NCI-H358	0.79
CAL-12T	0.702
COR-L 105	0.775
LCLC-97TM1	0.536
NCI-H520	0.261
NCI-H2228	0.625

Same assay, conditions: 1 µM

Cell Line	relative viability
NCI-H1915	0.791
NCI-H838	0.408
A-427	0.619
NCI-H2009	0.617
EKVX	0.582
NCI-H2087	0.508
NCI-H1734	0.684
LCLC-103H	0.749
LU99A	0.27
NCI-H460	0.704
NCI-H2170	0.654
SK-LU-1	0.425
NCI-H522	0.77
COR-L23	0.537
HCC-15	0.708
NCI-H1944	0.567

Cell Line	relative viability
EMC-BAC-2	0.474
NCI-H1792	0.374
NCI-H1395	0.7
LC-2-ad	0.779
NCI-H2085	0.658
NCI-H727	0.712
NCI-H647	0.427
HARA	0.55
NCI-H3122	0.704
NCI-H358	0.538
CAL-12T	0.528
COR-L 105	0.762
LCLC-97TM1	0.375
NCI-H520	0.34
NCI-H2228	0.619

Compound: CCCS(=O)(=O)Nc1ccc(F)c(C(=O)c2c[nH]c3ncc(-c4ccc(Cl)cc4)cc23)c1F [Vemurafenib]
Assay: as above
Conditions: 0.03162 µM
Procedure, shortened: as §1

Cell Line	relative viability
NCI-H1915	0.948
NCI-H838	0.924
A-427	0.953
NCI-H2009	0.95
EKVX	0.935
NCI-H2087	1.01
NCI-H1734	0.967
LCLC-103H	0.958
LU99A	0.93
NCI-H460	0.983
NCI-H2170	0.92
SK-LU-1	0.95
NCI-H522	0.913
COR-L23	0.943
HCC-15	0.926
NCI-H1944	0.939

Cell Line	relative viability
EMC-BAC-2	0.893
NCI-H1792	0.776
NCI-H1395	0.755
LC-2-ad	0.923
NCI-H2085	0.89
NCI-H727	1
NCI-H647	0.913
HARA	0.892
NCI-H3122	1.03
NCI-H358	0.865
CAL-12T	0.961
COR-L 105	0.772
LCLC-97TM1	0.989
NCI-H520	0.944
NCI-H2228	1.04

Same assay, conditions: 0.1 µM

Cell Line	relative viability
NCI-H1915	0.964
NCI-H838	0.988
A-427	0.973
NCI-H2009	0.938
NCI-H2087	1.11
NCI-H1734	1.02
LCLC-103H	0.952
LU99A	0.946
NCI-H460	1
NCI-H2170	0.674
SK-LU-1	0.958
NCI-H522	0.959
COR-L23	0.979
HCC-15	1.03
NCI-H1944	0.772
EMC-BAC-2	0.977
NCI-H1792	0.904
NCI-H1395	0.951
LC-2-ad	0.892
NCI-H2085	0.885
NCI-H727	0.802
NCI-H647	0.925
HARA	0.652
NCI-H3122	0.979
CAL-12T	0.892
LCLC-97TM1	1.05
NCI-H520	0.944
NCI-H2228	0.948

Same assay, conditions: 0.3162 µM

Cell Line	relative viability
NCI-H1915	0.755
A-427	0.852
NCI-H2009	0.716
EKVX	1.03
NCI-H1734	0.779
LCLC-103H	0.91
LU99A	0.74
NCI-H460	0.87
NCI-H2170	0.936
SK-LU-1	0.669
NCI-H522	0.852
COR-L23	0.927
HCC-15	0.854
NCI-H1944	0.895
EMC-BAC-2	0.624
NCI-H1792	0.624
LC-2-ad	0.738
NCI-H2085	0.805
NCI-H727	1.2
NCI-H647	0.655
HARA	0.701
NCI-H3122	1.03
NCI-H358	1.12
CAL-12T	1.01
COR-L 105	0.908
LCLC-97TM1	1.02
NCI-H520	1.08
NCI-H2228	1.05

Same assay, conditions: 1 µM

Cell Line	relative viability
NCI-H1915	0.845
NCI-H838	1.03
A-427	0.989
NCI-H2009	0.866
EKVX	0.988
NCI-H2087	1.13
NCI-H1734	0.875
LCLC-103H	0.883
LU99A	0.895
NCI-H460	0.975
NCI-H2170	0.964
SK-LU-1	0.978
NCI-H522	0.867
COR-L23	1.09
HCC-15	0.989
NCI-H1944	0.933

Cell Line	relative viability
EMC-BAC-2	0.826
NCI-H1792	0.914
NCI-H1395	0.949
LC-2-ad	0.956
NCI-H2085	1.02
NCI-H727	0.908
NCI-H647	0.942
HARA	0.864
NCI-H3122	1.12
NCI-H358	1.11
CAL-12T	0.935
COR-L 105	1.03
LCLC-97TM1	0.912
NCI-H520	0.924
NCI-H2228	0.999
